Patent US20210388029A1, “CYTOPLASMIC TRANSDUCTION PEPTIDE AND INTRACELLULAR MESSENGER COMPRISING SAME” (priority 2016, published 2021)
No end group written: not given here.

Tested on: HeLa cells
Assay: Cell membrane penetration activity in HeLa cells, immunostaining / confocal laser scanning microscope
Format: cell-based
Conditions: 3 hours; for fluorescence signal versus concentration (zinc finger domain peptides): FITC-conjugated
Experimental: HeLa cells were seeded into a 12-well plate having glass at a density of 1×10^5 cells/well, and then cultured for 24 hours to attach the cells to the glass. Then, cells were treated with FITC-NC peptides at […] concentration for 3 hours. After 3 hours, the cells were washed three times with PBS, the cells were fixed with 3.7% formaldehyde for 20 minutes, and the cells were treated with PBS containing 0.2% Triton X-100 to increase the cell membrane penetration activity. Then, the cells were blocked with 3% BSA for 1 hour, reacted with lamin A/C antibody (Sigma-Aldrich, USA) at room temperature for 2 hours, and washed three times with PBS. Next, the cells were treated with Cy3-conjugated secondary antibody (Jackson ImmunoResearch, USA) at room temperature for 1 hour, washed twice with PBS, and then stained with DAPI (4′,6-diamidino-2-phenylindol) for 10 minutes. The HeLa cell-attached glass was removed and placed on a slide glass.
The HeLa cells were seeded into a 12-well plate containing glass at a density of 1×10^5 cells/well, and then cultured for 24 hours to attach the cells to the glass. Thereafter, the FITC-NC peptide, the trans-activating transcriptional activator peptide (FITC-Tat peptide), the FITC-MA11 peptide, the protein transduction domain-ys peptide (FITC-PTD-ys peptide), the translocation motif peptide (FITC-TLM peptide) and FITC-TD1 peptide were treated with the HeLa cells for 3 hours. After 3 hours, the cells were washed 3 times with PBS and the cells were fixed with 3.7% formaldehyde for 20 minutes. The cells were treated with PBS containing 0.2% Triton X-100 to increase cell membrane penetration activity and blocked with 3% BSA for 1 hour. Then, the cells were reacted with tubulin antibody (Santa Cruz Biotechnology, USA) at room temperature for 2 hours and washed three times with PBS. The cells were treated with Cy3 secondary antibody. They were reacted at room temperature for 1 hour, washed twice with PBS, and stained with DAPI for 10 minutes. The HeLa cell-attached glass was removed and placed on a slide glass.
Further, in order to identify a change in cell membrane penetration activity by FITC-NC peptide, the HeLa cells were treated with hexapeptide, FITC-hexapeptide, FITC-NC-hexapeptide, FITC-13NC35 peptide and FITC-29NC50 peptide for 3 hours in the same manner as above and observed with a confocal laser scanning microscope. Meanwhile, the amino acid sequences of the hexapeptide, PTD-ys peptide, TLM peptide, TD1 peptide, NC-hexapeptide, 13NC35 peptide and 29NC50 peptide used are shown in Table 5 below.

Substance | fluorescence signal versus concentration (zinc finger domain peptides) | further results
13NC35 peptide: 13th to 35th amino acid of HIV-NC with first zinc finger domain, SEQ ID NO: 10 VKCFNCGKEGHTARNCRAPRKKG (cysteine pairing not given here; also: FITC label, place not given here) | fluorescence signals were increased in proportion to the concentration | 
29NC50 peptide: 29th to 50th amino acid of HIV-NC with second zinc finger domain, SEQ ID NO: 11 RAPRKKGCWKCGKEGHQMKDCT (cysteine pairing not given here; also: FITC label, place not given here) | fluorescence signals were increased in proportion to the concentration | 
FITC-TLM peptide: translocation motif peptide, SEQ ID NO: 7 PLSSIFSRIGDP, FITC-conjugated [reference compound] |  | cell membrane penetration (confocal) (20 μM): hardly penetrable to the cell membrane
hexapeptide: polypeptide cargo, SEQ ID NO: 5 EEMQRR (also: FITC label, place not given here) |  | cell membrane penetration of polypeptide cargo (confocal) (FITC-labelled): did not penetrate the cell membrane
